# Measurements from patent publication US7795279B2, “Method of inhibiting FLT3 kinase” (Janssen Pharmaceutica NV, priority 2005, dated 2010).
# pIC50: −log10 of the molar value.
# Tests used:
# [1] = tested on: MV4-11 cells; test: Inhibition of MV4-11 cell proliferation (CellTiterGlo); type: cell-based; conditions: Homo sapiens, 72 hours growth, uncertainty ±20%
# Protocol: To assess the cellular potency of compounds of the present invention, FLT3 specific growth inhibition was measured in the leukemic cell line MV4-11 (ATCC Number: CRL-9591). MV4-11 cells are derived from a patient with childhood acute myelomonocytic leukemia with an 11q23 translocation resulting in a MLL gene rearrangement and containing an FLT3-ITD mutation (AML subtype M4)(1,2). MV4-11 cells cannot grow and survive without active FLT3ITD.
# To measure proliferation inhibition by compounds of the present invention, the luciferase based CellTiterGlo reagent (Promega), which quantifies total cell number based on total cellular ATP concentration, was used. Cells are plated at 10,000 cells per well in 100 ul of in RPMI media containing penn/strep, 10% FBS and 1 ng/ml GM-CSF or 1 ng/ml IL-3 for MV4-11 and Baf3 cells respectively.
# Compound dilutions or 0.1% DMSO (vehicle control) are added to cells and the cells are allowed to grow for 72 hours at standard cell growth conditions (37° C., 5% CO2). For activity measurements in MV4-11 cells grown in 50% plasma, cells were plated at 10,000 cells per well in a 1:1 mixture of growth media and human plasma (final volume of 100 μL). To measure total cell growth an equal volume of CellTiterGlo reagent was added to each well, according to the manufacturer's instructions, and luminescence was quantified. Total cell growth was quantified as the difference in luminescent counts (relative light units, RLU) of cell number at Day 0 compared to total cell number at Day 3 (72 hours of growth and/or compound treatment). One hundred percent inhibition of growth is defined as an RLU equivalent to the Day 0 reading. Zero percent inhibition was defined as the RLU signal for the DMSO vehicle control at Day 3 of growth.
# Data points are an average of triplicate samples. […] Inhibition and IC50 data analysis was done with GraphPad Prism using a non-linear regression fit with a multiparamater, sigmoidal dose-response (variable slope) equation.
# [2] = Body weight and overt toxicity in the MV4-11 xenograft study; conditions: 11-day oral treatment, doses up to 200 mg/kg/day
# Protocol: If tumors in the control mice reached ˜10% of body weight (˜2.0 grams), the study was to be terminated. […] During the study, tumor growth was measured three times-a-week (M, W, F) using electronic Vernier calipers. Tumor volume (mm^3) was calculated using the formula […], where L=length (mm) and W=width (shortest distance in mm) of the tumor. Body weight was measured three times-a-week and a loss of body weight >10% was used as an indication of lack of compound tolerability. Unacceptable toxicity was defined as body weight loss >20% during the study. Mice were closely examined daily at each dose for overt clinical signs of adverse, drug-related side effects.
# Mice were weighed three times each week (M, W, F) during the study and were examined daily at the time of dosing for overt clinical signs of any adverse, drug-related side effects.
# [3] = tested on: MV4-11 tumor xenografts; test: Nude mouse MV4-11 human tumor xenograft regression model; type: in vivo; conditions: for final tumor weight: study termination
# Protocol: Female athymic nude mice (CD-1, nu/nu, 9-10 weeks old) were obtained from Charles River Laboratories (Wilmington, Mass.) and were maintained according to NIH standards. All mice were group housed (5 mice/cage) under clean-room conditions in sterile micro-isolator cages on a 12-hour light/dark cycle in a room maintained at 21-22° C. and 40-50% humidity. Mice were fed irradiated standard rodent diet and water ad libitum. All animals were housed in a Laboratory Animal Medicine facility that is fully accredited by the American Association for Assessment and Accreditation of Laboratory Animal Care (AAALAC). All procedures involving animals were conducted in compliance with the NIH Guide for the Care and Use of Laboratory Animals and all protocols were approved by an […] Animal Care and Use Committee (IACUC). The human leukemic MV4-11 cell line was obtained from the American Type Culture Collection (ATCC Number: CRL-9591) and propagated in RPMI medium containing 10% FBS (fetal bovine serum) and 5 ng/mL GM-CSF (R&D Systems). […] MV4-11 cells express constitutively active phosphorylated FLT3 receptor as a result of this naturally occurring FLT3/ITD mutation. Strong anti-tumor activity against MV4-11 tumor growth in the nude mouse tumor xenograft model is a desirable quality of the invention. […] Female athymic nude mice weighing no less than 20-21 grams were inoculated subcutaneously in the left inguinal region of the thigh with 5×10^6 tumor cells in a delivery volume of 0.2 mL. For regression studies, the tumors were allowed to grow to a pre-determined size prior to initiation of dosing.
# [4] = tested on: Baf3 cells; test: Baf3 cell proliferation (non-specific toxicity control); type: cell-based, murine; conditions: Mus musculus, IL-3 driven
# Excerpt: The IL-3 dependent, murine b-cell lymphoma cell line, Baf3, were used as a control to confirm the selectivity of compound inhibition of proliferation for representatives of the present invention by measuring non-specific growth inhibition by the compounds of the present invention (data not shown). To measure proliferation inhibition by compounds of the present invention, the luciferase based CellTiterGlo reagent (Promega), which quantifies total cell number based on total cellular ATP concentration, was used. […] Compound dilutions or 0.1% DMSO (vehicle control) are added to cells and the cells are allowed to grow for 72 hours at standard cell growth conditions (37° C., 5% CO2). […] To measure total cell growth an equal volume of CellTiterGlo reagent was added to each well, according to the manufacturer's instructions, and luminescence was quantified. Total cell growth was quantified as the difference in luminescent counts (relative light units, RLU) of cell number at Day 0 compared to total cell number at Day 3 (72 hours of growth and/or compound treatment). One hundred percent inhibition of growth is defined as an RLU equivalent to the Day 0 reading. Zero percent inhibition was defined as the RLU signal for the DMSO vehicle control at Day 3 of growth. MV4-11 cells express the FLT3 internal tandem duplication mutation, and thus are entirely dependent upon FLT3 activity for growth. […]
# [5] = tested on: FLT3 phosphorylation in MV4-11 tumors; test: FLT3 phosphorylation in MV4-11 tumors (immunoprecipitation / western blot); type: in vivo, mouse; conditions: tumors harvested 6 hours later
# Protocol: Tumors were harvested 6 hours later and snap frozen for assessment of FLT3 phosphorylation by western blots.
# Harvested tumors were frozen and processed for immunoblot analysis of FLT3 phosphorylation in the following manner: 200 mg of tumor tissue was dounce homogenized in lysis buffer (50 mM Hepes, 150 mM NaCl, 10% Glycerol, 1% Triton-X-100, 10 mM NaF, 1 mM EDTA, 1.5 mM MgCl2, 10 mM NaPyrophosphate) supplemented with phosphatase (Sigma Cat# P2850) and protease inhibitors (Sigma Cat #P8340). Insoluble debris was removed by centrifugation at 1000×g for 5 minutes at 4° C. […] Immunoprecipitated FLT3 from tumor lysates were then washed four times with lysis buffer and separated by SDS-PAGE. […] Blots were then stripped and reprobed with anti-FLT3 antibody for normalization of phosphorylation signals.
smiles,measurement,setting,value
"CN(C)CC(=O)N1CCC(c2ccc(NC(=O)c3nc(C#N)c[nH]3)c(C3=CCCCC3)c2)CC1 [Example 38, 4-Cyano-1H-imidazole-2-carboxylic acid {2-cyclohex-1-enyl-4-[1-(2-dimethylamino-acetyl)-piperidin-4-yl]-phenyl}-amide]",pIC50,[1],7.63
same,effects on body weight,[2],no significant adverse effects on body weight
same,tumor growth delay compared to vehicle-treated control group,"[3]; 10 mg/kg b.i.d. oral, 11 days",no significant growth delay
same,final tumor weight,[3]; 10 mg/kg b.i.d. oral,no significant decrease in final tumor weight
same,final tumor weight,[3]; 50 mg/kg b.i.d. oral,no measurable tumor mass detectable
same,inhibition at 3 µM,[4],< 50%
same,level of FLT3 phosphorylation in MV4-11 tumors versus vehicle,[5]; single dose 10 mg/kg po,partial reduction
same,level of FLT3 phosphorylation in MV4-11 tumors versus vehicle,[5]; single dose 100 mg/kg po,biologically significant reduction
